Tested on: human subjects (skin of the back)
Test: 14-Day Cumulative Irritation Assay (occlusive patch, comparative dermal irritation potential)
Type: in vivo
From the text: In the following study, the tested solutions were at a total surfactant actives content of 0.5% by weight. […] 14-Day Cumulative Irritation Assay of the Comparitive Dermal Irritation Potential of a Series of Test Articles The objective of this study was to determine the comparative dermal irritation potential of a series of nine (9) test articles on twenty-five (25) subjects using a 14-Day Cumulative Irritation Assay. Twenty-five (25) subjects, 1 male and 24 females, ranging in age from 18 to 55 years were empaneled for this test. […] Each day during the duration of the study, patches were removed and the sites were evaluated for irritation using the 6-point scoring system outlined below. […] This procedure was repeated at each visit for a period of fourteen (14) consecutive days, excluding Sundays (Saturday's patches were worn until Monday. Monday's irritation scores were recorded as Sunday's scores and Sunday was counted as an exposure day). Patch test sites were evaluated daily and scores were recorded on a Cumulative Irritation Patch Test recording form. Individual test article scores were calculated via summation of the results for each day. […] The following day's score was “carried back” and recorded for the missed visit day. […]

CCCCCCCCCCCCOS(=O)(=O)[O-].[Na+] [Test Article #9, Sodium lauryl sulphate]
Total Cum. Irrit. Scores (sum of total cumulative score for 14 days, 22 subjects, highest possible 924, solutions at 0.5% total surfactant actives): 844.5 | Mean Cum. Irrit. Scores (total divided by 22 subjects, highest possible 42, 14 days, 0.5% total surfactant actives): 38.4

From patent publication US6566408B1, “Aqueous surfactant compositions of monoalkyl phosphate ester salts and amphoteric surfactants” (Rhodia, Inc., priority 2000, dated 2003)
